Source: publication PMC8862572 (Bioorganic & medicinal chemistry, 2020)
Entries after “also recorded” stand apart in the source; their conditions may differ.

Target: T1, Recombinant human SphK1 (Homo sapiens, UniProt Q9NYA1)
Experiment: not given
Conditions: compound 1.0 μM

T1 sequence (Q9NYA1 whole entry): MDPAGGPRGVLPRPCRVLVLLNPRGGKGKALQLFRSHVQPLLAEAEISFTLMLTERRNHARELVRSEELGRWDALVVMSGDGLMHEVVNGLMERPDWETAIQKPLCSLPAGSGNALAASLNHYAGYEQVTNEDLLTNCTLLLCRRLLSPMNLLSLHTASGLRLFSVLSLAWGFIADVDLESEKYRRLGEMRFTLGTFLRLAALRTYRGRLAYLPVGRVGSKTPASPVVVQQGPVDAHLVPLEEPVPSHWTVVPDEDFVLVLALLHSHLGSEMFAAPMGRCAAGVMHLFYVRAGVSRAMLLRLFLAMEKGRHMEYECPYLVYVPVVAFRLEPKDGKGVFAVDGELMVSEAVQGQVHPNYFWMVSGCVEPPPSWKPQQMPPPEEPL

Row | Compound | SphK1 inhibition, in words
1 | Cl.OC[C@H]1CCCN1Cc1ccc(OCc2ccc(C(F)(F)F)cc2)cc1 [12e, (R)-(1-(4-((4-(trifluoromethyl)benzyl)oxy)benzyl)pyrrolidin-2-yl)methanol] | weak SphK inhibition
2 | Cl.OC[C@H]1CCCN1Cc1ccc(Oc2ccccc2)cc1 [18a, (R)-(1-(4-phenoxybenzyl)pyrrolidin-2-yl)methanol] | poor SphK1 and 2 inhibition
3 | CC(C)(C)c1cccc(Oc2ccc(CN3CCC[C@@H]3CO)cc2)c1.Cl [18b, (R)-(1-(4-(3-(tert-butyl)phenoxy)benzyl)pyrrolidin-2-yl)methanol] | minimal enzyme inhibition
4 | Cl.OC[C@H]1CCCN1Cc1ccc(Oc2cccc(-c3ccccc3)c2)cc1 [18d, (R)-(1-(4-([1,1′-biphenyl]-3-yloxy)benzyl)pyrrolidin-2-yl)methanol] | minimal enzyme inhibition
5 | CCCCCCCOc1ccc(CN2CCC[C@@H]2CO)cc1.Cl [12a, (R)-(1-(4-(heptyloxy)benzyl)pyrrolidin-2-yl)methanol] | poor SphK1 and 2 inhibition

Target: T2, Recombinant human SphK2 (Homo sapiens, UniProt Q9NRA0)
T2 sequence (Q9NRA0 1-654): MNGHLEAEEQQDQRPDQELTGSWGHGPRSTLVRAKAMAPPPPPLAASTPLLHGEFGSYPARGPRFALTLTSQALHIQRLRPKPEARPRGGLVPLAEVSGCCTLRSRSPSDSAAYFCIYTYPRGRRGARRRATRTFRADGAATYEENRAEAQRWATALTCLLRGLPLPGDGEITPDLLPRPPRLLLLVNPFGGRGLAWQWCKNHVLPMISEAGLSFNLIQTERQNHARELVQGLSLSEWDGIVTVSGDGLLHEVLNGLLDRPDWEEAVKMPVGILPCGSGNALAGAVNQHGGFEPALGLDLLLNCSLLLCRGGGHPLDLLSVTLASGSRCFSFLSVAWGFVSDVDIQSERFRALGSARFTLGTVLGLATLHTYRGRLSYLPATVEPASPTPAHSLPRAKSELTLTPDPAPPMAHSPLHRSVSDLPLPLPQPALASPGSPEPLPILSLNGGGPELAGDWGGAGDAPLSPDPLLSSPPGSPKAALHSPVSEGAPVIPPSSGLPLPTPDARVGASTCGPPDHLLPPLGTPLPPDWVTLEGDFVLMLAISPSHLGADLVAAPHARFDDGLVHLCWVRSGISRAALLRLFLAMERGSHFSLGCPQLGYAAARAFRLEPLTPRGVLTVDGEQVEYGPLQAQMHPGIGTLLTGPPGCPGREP
Experiment: Recombinant hSphK2 cell lysate assay
Format: biochemical
Conditions: compound 0.3 μM

Row | Compound | SphK2 inhibition, in words
6 | Cl.OC[C@H]1CCCN1Cc1ccc(OCc2ccc(C(F)(F)F)cc2)cc1 [12e, (R)-(1-(4-((4-(trifluoromethyl)benzyl)oxy)benzyl)pyrrolidin-2-yl)methanol] | weak SphK inhibition
7 | Cl.OC[C@H]1CCCN1Cc1ccc(Oc2ccccc2)cc1 [18a, (R)-(1-(4-phenoxybenzyl)pyrrolidin-2-yl)methanol] | poor SphK1 and 2 inhibition
8 | CC(C)(C)c1cccc(Oc2ccc(CN3CCC[C@@H]3CO)cc2)c1.Cl [18b, (R)-(1-(4-(3-(tert-butyl)phenoxy)benzyl)pyrrolidin-2-yl)methanol] | minimal enzyme inhibition
9 | CCCCCCCCCCCCc1ccc(CN2CCC[C@@H]2CO)cc1.Cl [22d, (R)-(1-(4-dodecylbenzyl)pyrrolidin-2-yl)methanol] | strong inhibitory activity
10 | Cl.OC[C@H]1CCCN1Cc1ccc(Oc2cccc(-c3ccccc3)c2)cc1 [18d, (R)-(1-(4-([1,1′-biphenyl]-3-yloxy)benzyl)pyrrolidin-2-yl)methanol] | minimal enzyme inhibition
11 | CCCCCCCOc1ccc(CN2CCC[C@@H]2CO)cc1.Cl [12a, (R)-(1-(4-(heptyloxy)benzyl)pyrrolidin-2-yl)methanol] | poor SphK1 and 2 inhibition
12 | CCCCCCCCCCc1ccc(CN2CCC[C@@H]2CO)cc1.Cl [22b, (R)-(1-(4-decylbenzyl)pyrrolidin-2-yl)methanol] | strong inhibitory activity

Same assay, conditions: read-out: % SphK2 Inhibition

Row | Compound | inhibition at 0.3 µM
13 | CCCCCCCCCCCc1ccc(CN2CCC[C@@H]2COC(C)=O)cc1 [22h, (R)-(1-(4-undecylbenzyl)pyrrolidin-2-yl)methyl acetate] | 26 ± 6%
14 | CCCCCc1ccc(CCc2ccc(CN3CCC[C@@H]3CO)cc2)cc1 [29c, (R)-(1-(4-(4-pentylphenethyl)benzyl)pyrrolidin-2-yl)methanol] | 15 ± 5%
15 | CCCc1ccc(CCc2ccc(CN3CCC[C@@H]3CO)cc2)cc1 [29a, (R)-(1-(4-(4-propylphenethyl)benzyl)pyrrolidin-2-yl)methanol] | 3 ± 4%
16 | Cc1ccc(CCc2ccc(CN3CCC[C@@H]3CO)cc2)cc1 [22f, (R)-(1-(4-(4-methylphenethyl)benzyl)pyrrolidin-2-yl)methanol] | 3 ± 5%
17 | COc1ccc(CCc2ccc(CN3CCC[C@@H]3CO)cc2)cc1 [22g, (R)-(1-(4-(4-methoxyphenethyl)benzyl)pyrrolidin-2-yl)methanol] | 2 ± 2%
18 | OC[C@H]1CCCN1Cc1ccc(/C=C/c2cccc(C(F)(F)F)c2)cc1 [25b, (R,E)-(1-(4-(3-(trifluoromethyl)styryl)benzyl)pyrrolidin-2-yl) methanol] | 13 ± 5%
19 | Cc1cc(/C=C/c2ccc(C(C)(C)C)cc2)ccc1CN1CCC[C@@H]1CO [25a, (R,E)-(1-(4-(4-(tert-butyl)styryl)-2-methylbenzyl)pyrrolidin-2-yl)methanol] | 0%

Tested on: U937 cells
Experiment: U937 cell culture assay, S1P levels by LC-MS/MS
Conditions: 0.1 μM to 1.0 μM, 2.0 h incubation

Row | Compound | S1P levels in U937 cells
20 | CCCCCCCCCCCCc1ccc(CN2CCC[C@@H]2CO)cc1.Cl [22d, (R)-(1-(4-dodecylbenzyl)pyrrolidin-2-yl)methanol] | decreased S1P levels; also recorded: concentration-dependent reduction of S1P levels

Target: T1, Recombinant human SphK1
Experiment: biochemical
Conditions: read-out: % SphK1 Inhibition

Row | Compound | inhibition at 1 µM
21 | CCCCCCCCCCCc1ccc(CN2CCC[C@@H]2COC(C)=O)cc1 [22h, (R)-(1-(4-undecylbenzyl)pyrrolidin-2-yl)methyl acetate] | 47 ± 6%
22 | CCCCCc1ccc(CCc2ccc(CN3CCC[C@@H]3CO)cc2)cc1 [29c, (R)-(1-(4-(4-pentylphenethyl)benzyl)pyrrolidin-2-yl)methanol] | 36 ± 3%
23 | CCCCc1ccc(CCc2ccc(CN3CCC[C@@H]3CO)cc2)cc1 [29b, (R)-(1-(4-(4-butylphenethyl)benzyl)pyrrolidin-2-yl)methanol] | 31 ± 4%
24 | CCCc1ccc(CCc2ccc(CN3CCC[C@@H]3CO)cc2)cc1 [29a, (R)-(1-(4-(4-propylphenethyl)benzyl)pyrrolidin-2-yl)methanol] | 29 ± 8%
25 | Cc1ccc(CCc2ccc(CN3CCC[C@@H]3CO)cc2)cc1 [22f, (R)-(1-(4-(4-methylphenethyl)benzyl)pyrrolidin-2-yl)methanol] | 4 ± 4%
26 | COc1ccc(CCc2ccc(CN3CCC[C@@H]3CO)cc2)cc1 [22g, (R)-(1-(4-(4-methoxyphenethyl)benzyl)pyrrolidin-2-yl)methanol] | 8 ± 7%
27 | OC[C@H]1CCCN1Cc1ccc(/C=C/c2cccc(C(F)(F)F)c2)cc1 [25b, (R,E)-(1-(4-(3-(trifluoromethyl)styryl)benzyl)pyrrolidin-2-yl) methanol] | 45 ± 1%
28 | Cc1cc(/C=C/c2ccc(C(C)(C)C)cc2)ccc1CN1CCC[C@@H]1CO [25a, (R,E)-(1-(4-(4-(tert-butyl)styryl)-2-methylbenzyl)pyrrolidin-2-yl)methanol] | 23 ± 3%
